# Results as given in ChEMBL document CHEMBL5604063, “ASAP - DENV-2 NS2B-NS3 protease fluorescence dose response” (2024).
# Several values for one entry are separate records, joined by “and”; a condition that tells them apart may be missing. Identical values can stand only once.
# Molecular target: Genome polyprotein (dengue virus type 2, UniProt P29990)
# Type: functional, Thailand/16681/1984
# Sequence of Genome polyprotein (P29990 1346-1475 limits assumed): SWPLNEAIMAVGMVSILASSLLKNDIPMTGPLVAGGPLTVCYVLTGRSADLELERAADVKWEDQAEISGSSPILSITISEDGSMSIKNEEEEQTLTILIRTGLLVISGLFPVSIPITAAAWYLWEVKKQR
# Sequence of Genome polyprotein (P29990 1476-2093 limits assumed): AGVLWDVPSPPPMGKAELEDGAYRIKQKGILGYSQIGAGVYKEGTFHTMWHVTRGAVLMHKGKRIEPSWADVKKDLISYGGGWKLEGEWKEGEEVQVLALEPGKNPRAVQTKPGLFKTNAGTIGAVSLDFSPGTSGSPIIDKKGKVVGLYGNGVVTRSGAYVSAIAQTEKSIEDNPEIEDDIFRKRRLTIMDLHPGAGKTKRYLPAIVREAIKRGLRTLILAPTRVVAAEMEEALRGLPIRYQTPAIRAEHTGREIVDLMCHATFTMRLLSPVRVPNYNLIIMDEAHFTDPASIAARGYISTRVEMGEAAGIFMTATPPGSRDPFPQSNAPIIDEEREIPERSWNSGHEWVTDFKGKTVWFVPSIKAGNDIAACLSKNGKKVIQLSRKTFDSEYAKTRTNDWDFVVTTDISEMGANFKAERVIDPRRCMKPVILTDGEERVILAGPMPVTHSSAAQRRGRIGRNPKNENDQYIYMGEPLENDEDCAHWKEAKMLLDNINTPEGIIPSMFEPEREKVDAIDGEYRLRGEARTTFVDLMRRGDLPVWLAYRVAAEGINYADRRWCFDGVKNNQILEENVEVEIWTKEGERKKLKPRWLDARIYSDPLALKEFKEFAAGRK
row,Compound,IC50
1,O=C1c2c(O)ccc([N+](=O)[O-])c2C(=O)c2c([N+](=O)[O-])ccc(O)c21,12.7 µM and > 99.5 µM
2,O=C(C(=O)N1CCOCC1)c1c[nH]c2ccccc12,> 99.5 µM
3,COc1ccc(S(=O)(=O)n2nc(OC(=O)c3cccc(-c4ccccc4Cl)c3)cc2N)cc1,> 99.5 µM
4,CCCCCC(=O)N[C@H](C(=O)NCc1cccc(CN)c1)c1ccc(OCc2ccccc2)cc1,84.6 µM
5,CCCC[C@H](NC(C)=O)C(=O)N[C@H](C(=O)NCc1ccc(C(N)=O)cc1)c1ccc(OCc2ccccc2)cc1,> 99.5 µM
6,NC(=O)c1cccc(NC(=O)[C@@H](NC(=O)c2ccc(Oc3ccc(C(F)(F)F)cc3)cc2)c2ccc(OCc3ccccc3)cc2)c1,> 99.5 µM
7,O=C(Nc1ccc2c(c1)B(O)OC2)c1cccc(OCc2c(Cl)cccc2Cl)c1,> 99.5 µM
8,COc1ccc(S(=O)(=O)Nc2ccc(C(=O)Nc3nc4ccccc4s3)cc2)cc1,> 99.5 µM
9,CNC(=O)c1cc(Cl)ccc1NS(=O)(=O)c1cccc(Oc2ccccc2)c1,> 99.5 µM
10,O=C(N[C@H]1CCNC1=O)c1cc(Cl)ccc1NS(=O)(=O)c1ccc(Oc2ccccc2Cl)cc1,87.3 µM
11,CN(C)c1ccc(/C=C/C(=O)C(=O)N2CCOCC2)cc1,88.8 µM
12,Nc1ccc(C(=O)Nc2nc3ccccc3s2)nc1,> 99.5 µM
13,C[C@@H](NC(=O)c1cc(Cl)ccc1NS(=O)(=O)c1ccc(Oc2ccccc2Cl)cc1)[C@H]1CCCO1,> 99.5 µM
14,O=C(c1cc(Cl)ccc1NS(=O)(=O)c1ccc(Oc2ccccc2Cl)cc1)N1CC[C@H](CO)C1,91.2 µM
15,CNC(=O)c1cc(Cl)ccc1NS(=O)(=O)c1ccc(OC2CCCC2)nc1,> 99.5 µM
16,O=C(N[C@H]1CCOC1)c1cc(Cl)ccc1NS(=O)(=O)c1ccc(Oc2ccccc2Cl)cc1,67.4 µM
17,O=S(=O)(Nc1ccc(Oc2ccccc2Cl)cc1)c1c[nH]c2ccc(Cl)cc12,> 99.5 µM
18,Cc1ccc(CNC(=O)c2cc(Cl)ccc2NS(=O)(=O)c2ccc(Oc3ccccc3Cl)cc2)s1,> 99.5 µM
19,Cc1nnc([C@H](C)n2cc(C3CCNCC3)c(C)n2)o1,> 99.5 µM
20,CC[C@H]1CCN(C(=O)c2cc(Cl)ccc2NS(=O)(=O)c2ccc(Oc3ccccc3Cl)cc2)C1,> 99.5 µM
21,CCCC[C@@H](NC(=O)OC(C)(C)C)C(=O)N[C@@H](C(=O)NCc1ccc(CN)cc1)c1ccc(OCc2ccccc2)cc1,36.4 µM
22,O=C(/C=C/c1ccc(N2CCNCC2)cc1)C(=O)N1CCOCC1,> 99.5 µM
23,CNC(=O)c1cccc(CNc2cc(Cl)cc(C(=O)NC(C)(C)CO)c2)c1,> 99.5 µM
24,CCCC[C@H](N)C(=O)N[C@H](C(=O)NCc1ccc(C(N)=O)cc1)c1ccc(OCc2ccccc2)cc1,> 99.5 µM
25,CCc1ccc(NS(=O)(=O)c2ccc(Oc3ccccc3Cl)cc2)c(C(=O)NC)c1,> 99.5 µM
26,CNC(=O)c1cc(OC)ccc1NS(=O)(=O)c1ccc(Oc2ccccc2Cl)cc1,> 99.5 µM

row,Compound,IC50
1,C[C@H]1COCCN1C(=O)c1cc(Cl)ccc1NS(=O)(=O)c1ccc(Oc2ccccc2Cl)cc1,95.6 µM
2,CNC(=O)c1cc(Cl)c(OC)cc1NS(=O)(=O)c1ccc(Oc2ccccc2Cl)cc1,31.9 µM
3,CCCC[C@H](N)C(=O)N[C@@H](C(=O)NCc1ccc(C(N)=O)cc1)c1ccc(OCc2ccccc2)cc1,> 99.5 µM
4,COC[C@@H](C)CNC(=O)c1cc(Cl)ccc1NS(=O)(=O)c1ccc(Oc2ccccc2Cl)cc1,> 99.5 µM
5,CNC(=O)c1cc(C#N)ccc1NS(=O)(=O)c1ccc(Oc2ccccc2Cl)cc1,44.8 µM
6,NC(=O)c1cn(C[C@H]2CCCN2c2ccnc3ccccc23)nn1,> 99.5 µM
7,Nc1ccc(/C=C/C(=O)C(=O)N2CCN(CCc3ccccc3)CC2)cc1,> 99.5 µM
8,CCCC[C@H](NC(C)=O)C(=O)N[C@H](C(=O)NCc1ccc(CN)cc1)c1ccccc1,> 99.5 µM
9,CCn1ccnc(N2CC[C@H](c3cccnc3)C2)c1=O,> 99.5 µM
10,CCn1ccnc(N2CC[C@H](c3ccn[nH]3)C2)c1=O,> 99.5 µM
11,NC(=O)c1ccccc1NS(=O)(=O)c1ccc(Oc2ccccc2Cl)cc1,> 99.5 µM
12,CCCN(C)C(=O)c1cc(Cl)ccc1NS(=O)(=O)c1ccc(Oc2ccccc2Cl)cc1,27.9 µM
13,CCCCCNC(=O)c1cc(Cl)ccc1NS(=O)(=O)c1ccc(Oc2ccccc2Cl)cc1,> 99.5 µM
14,CCn1ccnc(N2C[C@@H](O)[C@H](c3c[nH]c4ccccc34)C2)c1=O,> 99.5 µM
15,O=C(O)c1cccc(NC(=O)c2cccc(OCc3c(Cl)cccc3Cl)c2)c1,> 99.5 µM
16,CNC(=O)c1cccc(CCC(=O)Nc2cc(Cl)cc(C(=O)NC(C)(C)CO)c2)c1,> 99.5 µM
17,N=C(N)NCCc1ccc(OC(=O)Nc2ccccc2)cc1,> 99.5 µM
18,Cc1cc(NS(=O)(=O)c2ccc(Oc3ccccc3Cl)cc2)c(C(=O)NCC(F)(F)F)cc1F,22.1 µM
19,CCCC[C@H](NC(=O)OC(C)(C)C)C(=O)N[C@H](C(=O)NCc1ccc(C(N)=O)cc1)c1ccc(OCc2ccccc2)cc1,> 99.5 µM
20,CCn1ccnc(N2CC[C@@H](C(=O)NC)C2)c1=O,> 99.5 µM
21,N#Cc1cccc(NC(=O)c2cccc(OCc3c(Cl)cccc3Cl)c2)c1,> 99.5 µM
22,O=C(c1cc(Cl)ccc1NS(=O)(=O)c1ccc(Oc2ccccc2Cl)cc1)N1CCCC1,66.2 µM
23,NCc1cccc(NC(=O)[C@@H](NC(=O)OCc2ccccc2)c2ccc(F)cc2F)c1,> 99.5 µM
24,CCn1c(=O)c(N2CC[C@@H](CO)C2)nc2ccccc21,> 99.5 µM
25,CC(C)c1ccc([C@@H](NC(=O)OCc2ccccc2)C(=O)Nc2cccc(CN)c2)cc1,> 99.5 µM
26,CS(=O)(=O)Nc1ccc(C(=O)Nc2nc3ccccc3s2)cc1,> 99.5 µM

row,Compound,IC50
1,CNC(=O)c1cc(Br)cnc1NS(=O)(=O)c1ccc(Oc2ccccc2Cl)cc1,71.4 µM
2,CCn1ccnc(N2CCC(c3c[nH]c4ccccc34)CC2)c1=O,> 99.5 µM
3,O=C(NCc1cocn1)c1cc(Cl)ccc1NS(=O)(=O)c1ccc(Oc2ccccc2Cl)cc1,24.7 µM
4,COc1cc(Cc2c(-c3ccc(F)cc3)noc2C)nc(N2CCNCC2)n1,> 99.5 µM
5,C[C@@H](NC(=O)c1cc(Cl)ccc1NS(=O)(=O)c1ccc(Oc2ccccc2Cl)cc1)C1COC1,70.2 µM
6,NCc1cccc(NC(=O)[C@H]2c3ccccc3CCN2C(=O)OCc2ccccc2)c1,> 99.5 µM
7,CC(C)Nc1nc2ccc(C(=O)Nc3nnnn3-c3ccccn3)cc2[nH]1,> 99.5 µM
8,NCc1cccc(NC(=O)[C@@H](NC(=O)OCc2ccccc2)C(C2CCC2)C2CCC2)c1,> 99.5 µM and 98.9 µM
9,CCn1ccnc(N2CC[C@@H](CC(N)=O)C2)c1=O,> 99.5 µM
10,N=C(N)Nc1ccc(NC(=O)Oc2ccccc2)cc1,> 59.8 µM
11,COc1cc(COc2cncc3ccccc23)nc(N2CCNCC2)n1,> 99.5 µM
12,O=S(=O)(Nc1ccc(Cl)cc1)c1ccc(Oc2ccccc2Cl)cc1,> 99.5 µM
13,CCn1ccnc(N2CC[C@H](c3cccc(C#N)c3)C2)c1=O,> 99.5 µM
14,CN(C)Cc1ccc(C(=O)Nc2cc(Cl)cc(C(=O)NC(C)(C)CO)c2)[nH]1,> 99.5 µM
15,CCn1ccnc(N2CC[C@H](c3c[nH]c4ccccc34)C2)c1=O,> 99.5 µM
16,N=C(N)Nc1ccc(OC(=O)Nc2ccccc2)cc1,> 99.5 µM
17,O=C(NCC1CC1)c1cc(Cl)ccc1NS(=O)(=O)c1ccc(Oc2ccccc2Cl)cc1,22 µM
18,NCc1ccc(/C=C/C(=O)C(=O)N2CCOCC2)cc1,> 99.5 µM
19,CCn1ccnc(N2CC[C@H](c3ccc(OC)nc3)C2)c1=O,> 99.5 µM
20,CCn1ccnc(N2CC[C@H](c3ccc(F)cc3)C2)c1=O,> 99.5 µM
21,CCn1ccnc(N2CC[C@H](C3CCOCC3)C2)c1=O,> 99.5 µM
22,N=C(N)NCCc1ccc(NC(=O)Oc2ccccc2)cc1,> 99.5 µM
23,CNC(=O)c1cc(Cl)ccc1NS(=O)(=O)c1ccc(Oc2ccccc2Cl)cc1,33.7 µM
24,NCc1cccc(NC(=O)[C@@H](NC(=O)OCc2ccccc2)c2cc(F)cc(F)c2)c1,> 99.5 µM
25,CCn1ccnc(N2CC[C@H](c3ccncc3)C2)c1=O,> 99.5 µM
26,CC(C)CNC(=O)c1cc(Cl)ccc1NS(=O)(=O)c1ccc(Oc2ccccc2Cl)cc1,13 µM

row,Compound,IC50
1,CCCC[C@H](NC(C)=O)C(=O)N[C@H](C(=O)Nc1ccc(C(N)=O)cc1)c1ccc(OCc2ccccc2)cc1,> 99.5 µM
2,CC(C)(CO)NC(=O)c1cc(Cl)cc(NC(=O)c2cc(Cl)ccc2O)c1,> 99.5 µM
3,CS(=O)(=O)c1ccc(N2CCNCC2)cc1NC(=O)c1cccc2ncccc12,> 99.5 µM
4,CCOc1ccc([C@@H](NC(=O)OCc2ccccc2)C(=O)Nc2cccc(CN)c2)cc1,> 99.5 µM
5,O=C(c1cc(Cl)ccc1NS(=O)(=O)c1ccc(Oc2ccccc2Cl)cc1)N1CCC[C@@H]1CO,62.7 µM
6,CCn1ccnc(N2CC[C@H](C#N)C2)c1=O,> 99.5 µM
7,CCn1ccnc(N2CC[C@@H](CO)C2)c1=O,> 99.5 µM
8,NCc1cccc(NC(=O)[C@@H](NC(=O)OCc2ccccc2)c2cccc(F)c2F)c1,> 99.5 µM
9,CN(CCS(N)(=O)=O)C(=O)c1cc(Cl)ccc1NS(=O)(=O)c1ccc(Oc2ccccc2Cl)cc1,84 µM
10,CCn1ccnc(N2CC[C@@H](Cc3ccncc3)C2)c1=O,> 99.5 µM
11,O=C(O)c1cccc(NC(=O)c2ccc3[nH]ccc3c2)c1,> 99.5 µM
12,CCn1ccnc(N2CC[C@@H](CC#N)C2)c1=O,> 99.5 µM
13,CCCC[C@H](NC(C)=O)C(=O)N[C@H](C(=O)NCc1ccc(CN)cc1)c1ccc(OCc2ccccc2)cc1,77.3 µM
14,Cc1cc(-n2nccc2NC(=O)[C@]2(c3ccc(F)cc3)CCCNC2)ncn1,> 99.5 µM
15,N=C(N)NCCc1cccc(B(O)O)c1,> 99.5 µM
16,N=C(N)NCc1ccc(NC(=O)Oc2ccccc2)cc1,> 59.8 µM
17,N=C(N)NCc1ccc(OC(=O)Nc2ccccc2)cc1,> 99.5 µM
18,O=C(NCc1ccccc1)c1cc(O)ccc1NS(=O)(=O)c1ccc(Oc2ccccc2Cl)cc1,86.4 µM
19,CNC(=O)c1cc(Cl)c(F)cc1NS(=O)(=O)c1ccc(Oc2ccccc2Cl)cc1,14.9 µM
20,NCc1cccc(NC(=O)[C@@H](NC(=O)OCc2ccccc2)c2ccc(Cl)cc2)c1,> 99.5 µM
21,CNC(=O)c1cnncc1NS(=O)(=O)c1ccc(Oc2ccccc2Cl)cc1,> 99.5 µM
22,CC[C@H]1CCN(c2nccn(CC)c2=O)C1,> 99.5 µM
23,O=C(O)c1cc(Cl)ccc1NS(=O)(=O)c1ccc(Oc2ccccc2Cl)cc1,13.8 µM
24,CC(C)(CO)NC(=O)c1cc(Cl)cc(NC(=O)c2ccc(O)nc2)c1,> 99.5 µM
25,CCn1ccnc(N2CC[C@H](c3ccc(C#N)cc3)C2)c1=O,> 99.5 µM
26,O=C(Nc1ccc(F)nc1)Oc1ccccc1,> 59.8 µM
